The target of experiment [1] is T1, mouse brain FAAH (Mus musculus, UniProt O08914).
T1 construct: from tissue; host or cells: mouse brain (minus cerebellum), washed membrane pellet
T1 sequence (O08914 1-579): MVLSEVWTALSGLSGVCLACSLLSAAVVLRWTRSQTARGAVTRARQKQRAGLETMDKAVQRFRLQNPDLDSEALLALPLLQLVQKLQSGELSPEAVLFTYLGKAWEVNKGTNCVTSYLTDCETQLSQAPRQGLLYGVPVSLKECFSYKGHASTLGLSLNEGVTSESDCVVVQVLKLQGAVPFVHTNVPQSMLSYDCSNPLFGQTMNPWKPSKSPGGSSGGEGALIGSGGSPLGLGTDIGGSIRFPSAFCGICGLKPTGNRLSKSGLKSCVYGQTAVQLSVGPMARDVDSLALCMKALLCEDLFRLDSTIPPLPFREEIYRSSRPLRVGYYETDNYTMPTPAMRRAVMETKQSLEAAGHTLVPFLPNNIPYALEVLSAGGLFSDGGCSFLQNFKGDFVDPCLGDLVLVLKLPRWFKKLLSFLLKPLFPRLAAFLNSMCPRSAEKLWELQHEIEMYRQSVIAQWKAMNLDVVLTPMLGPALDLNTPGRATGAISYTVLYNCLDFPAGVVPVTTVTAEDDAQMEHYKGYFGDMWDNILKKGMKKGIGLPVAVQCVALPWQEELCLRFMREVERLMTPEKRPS
Nature of the experiment: Inhibition of [3H]AEA hydrolysis in mouse brain homogenates. The experiment is classed as biochemical. To be noted: 0.5 μM [3H]AEA. How it is done: (§1) Brains (minus cerebella) from adult Wistar or Sprague-Dawley rats (killed by decapitation) and from male B6CBAF1/J mice (killed by cervical dislocation), stored at -80°C, were thawed, weighed and homogenized in cold buffer (20 mM HEPES, 1 mM MgCl2 pH 7.0). Homogenates were centrifuged (35,000 g at 4°C for 20 min) before the pellet was resuspended in cold homogenization buffer. Centrifugation and resuspension was repeated twice. The suspension was incubated at 37°C for 15 min to degrade any endogenous substrate able to interfere with the FAAH assay. After centrifugation (35,000 g at 4°C for 20 min), the pellet was resuspended in cold buffer (50 mM Tris-HCl, 1mM EDTA, 3 mM MgCl2, pH 7.4). The protein concentration was determined according to [27] after which the samples were frozen in aliquots at -80°C.
(§2) The assays were performed according to [28] with minor modifications. Briefly, homogenates or cell lysates in assay buffer (10 mM Tris-HCl, 1mM EDTA, pH 7.4) were mixed with substance dissolved in ethanol on ice. Hydrolysis reactions were initiated by addition of substrate ([^3H]AEA in 10 mM Tris-HCl, 1mM EDTA, pH 7.4 containing 10 mg ml^-1 fatty acid-free bovine serum, assay concentration 0.5 μM unless otherwise stated) and incubation at 37°C. For the brain homogenates, hydrolysis at 37°C was allowed to proceed for 10 min (assay volume was 200 μL, with 1 and 0.3 μg/assay protein concentrations of the rat and mouse homogenates, respectively). For the kinetic experiments, the AEA: fatty acid-free bovine serum albumin ratio was kept constant at 1: ~4.5 (μM). Following incubation, reactions were stopped by addition of 400 μL activated charcoal (80 μL activated charcoal + 320 μL 0.5 M HCl) and placement of samples on ice before centrifugation at 2500 rpm for 10 min. Aliquots (200 μL) of the supernatant were analyzed for tritium content by liquid scintillation spectroscopy with quench correction. Sample sizes were chosen on the basis of previous data investigating FAAH inhibitory properties of compounds.
(§3) pI50 and IC50 values were calculated using log(inhibitor) vs. response with variable slope (four parameters) algorithm in the GraphPad Prism computer program (GraphPad Software Inc., San Diego, CA. USA). […] The best fit was chosen by Akaike’s informative criteria. Ki and α values were obtained using the enzyme kinetics mixed model inhibition curve fitting algorithm available in the GraphPad Prism programme. This models the observed velocity v^app at a given substrate concentration where v^app = Vmax ^app/(1 + Km ^app/[S]), Vmax ^app = Vmax/(1+[I]/(αKi)) and Km ^app = Km(1+[I]/Ki)/(1+[I]/(αKi)) (http://www.graphpad.com/guides/prism/6/curve-fitting/index.htm?reg_mixered_model.htm, URL checked 16 October 2015). The model assuming competitive interactions (where α→∞) was also used, and the best fit was chosen by Akaike’s informative criteria. Robust linear regressions for the Dixon plots, which are less sensitive to outliers than the standard least-squares methodology were undertaken using the same computer programme.

The target in the next experiment is T2, rat brain FAAH (Rattus norvegicus, UniProt P97612).
T2 construct: from tissue; host or cells: rat brain (minus cerebellum), washed membrane pellet
T2 sequence (P97612 1-579): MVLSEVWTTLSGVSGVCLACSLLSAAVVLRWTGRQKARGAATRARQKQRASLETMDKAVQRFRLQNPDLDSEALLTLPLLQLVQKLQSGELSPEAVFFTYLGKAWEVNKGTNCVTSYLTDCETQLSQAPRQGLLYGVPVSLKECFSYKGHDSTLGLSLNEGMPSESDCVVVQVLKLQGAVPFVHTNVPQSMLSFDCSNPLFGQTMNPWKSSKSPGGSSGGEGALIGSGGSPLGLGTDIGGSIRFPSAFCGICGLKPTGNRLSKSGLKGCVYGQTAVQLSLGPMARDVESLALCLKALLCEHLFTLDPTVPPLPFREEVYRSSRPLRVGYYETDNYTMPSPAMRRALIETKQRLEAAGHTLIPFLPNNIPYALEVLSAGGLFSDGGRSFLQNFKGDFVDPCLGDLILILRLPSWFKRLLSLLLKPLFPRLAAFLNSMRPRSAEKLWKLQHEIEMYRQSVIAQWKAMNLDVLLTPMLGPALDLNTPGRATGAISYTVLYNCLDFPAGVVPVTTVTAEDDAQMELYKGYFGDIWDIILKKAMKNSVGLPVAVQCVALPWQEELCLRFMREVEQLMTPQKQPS
Nature of the experiment: Inhibition of [3H]AEA hydrolysis in rat brain homogenates. In kind it is biochemical. How it is done: as §1, §2, §3

Experiment [2] addresses T1, mouse brain FAAH. Further details: method as in PMID 26406890. As to conditions: mouse brain homogenates; cited from earlier work.
Experiment [3] concerns the target T3, rat wild-type FAAH (FAAH^wt) (Rattus norvegicus, UniProt P97612).
T3 construct: expressed in transfected cells; host or cells: HeLa cells, pcDNA4 plasmid, lysate
T3 sequence (P97612 1-579): T2 sequence (P97612 1-579)
Nature of the experiment: Inhibition of [3H]AEA hydrolysis in lysates of HeLa cells expressing wild-type FAAH. In kind it is biochemical. To be noted: for IC50: preliminary experiments, another batch of wild-type FAAH, 1.5–2 μg/assay, 20 min at 37°C, read-out: potencies; for nH: 0.5 μM [3H]AEA.

A further experiment concerns the target T4, FAAH^T488A (Rattus norvegicus, UniProt P97612, T488A).
T4 construct: expressed in transfected cells; host or cells: HeLa cells, pcDNA4 plasmid, lysate
T4 sequence (P97612 1-579 T488A): T2 sequence (P97612 1-579) with T488A
Kind of experiment: Inhibition of [3H]AEA hydrolysis in lysates of HeLa cells expressing FAAH^T488A. In kind it is biochemical. To be noted: FAAH^T488A lysate 0.4 μg/assay, 18 h, 0.5 μM [3H]AEA.

[4] abbreviates: linear mixed inhibition model fit, 0.5–4 μM [3H]AEA.
The mark [5] stands for this setting: linear mixed inhibition model fit, 0.5–4 μM [3H]AEA, read-out: Ki.
Where [6] appears, read: median of Dixon plot intersections, 0.5–4 μM [3H]AEA, read-out: Ki (Dixon plot).
Setting [7] is: rat brain homogenates, 0.5 μM [3H]AEA.
Where [8] appears, read: rat brain homogenates, 0.5 μM [3H]AEA, read-out: IC50.
Where [9] appears, read: rat brain homogenates, 0.5 μM [3H]AEA, read-out: pI50 (converted).

Where a chain is given by its changes, count along the chain named. Like-named read-outs stand apart in the source and are kept apart here.

With `Cc1cccnc1NC(=O)[C@@H](C)c1ccc(-c2ccccc2)c(F)c1` [(S)-Flu-AM1], the “nH (Hill slope)” value is given as 1.31±0.16 on mouse brain FAAH [1] and 0.94±0.04 on rat brain FAAH (setting [7]). Further, at rat brain FAAH (0.5–4 μM [3H]AEA, compared with pure competitive model), the “mode of inhibition (best-fit model)” value was “linear mixed inhibition”. At rat brain FAAH (setting [4]), the α stood at 5.6±3.6. Moreover, the Ki at rat brain FAAH (setting [5]) was 0.79 ± 0.28 µM; at rat brain FAAH (setting [6]) it was 0.86 µM. Besides, the IC50 on rat brain FAAH (setting [8]) is 0.99 µM; at rat brain FAAH (setting [9]), 1 µM; at mouse brain FAAH [2], 11 µM; in experiment [3], 2.4 µM. Moreover, the pI50 at mouse brain FAAH [2] is recorded as 4.96±0.04.
Consider `Cc1cccnc1NC(=O)C(C)c1ccc(CC(C)C)cc1` (racemic) [racemic Ibu-AM5, 2-(4-Isobutylphenyl)-N-(3-methylpyridin-2-yl)propanamide], for which the IC50 on rat brain FAAH (setting [8]) and on rat brain FAAH (setting [9]) was 1.2 µM throughout.
For the compound `CC(C(=O)O)c1ccc2c(c1)[nH]c1ccc(Cl)cc12` (stereo not drawn) [Carprofen, reference compound], the “nH (Hill slope)” value at rat brain FAAH (setting [7]) came out at 1.66±0.13. Moreover, the nH in experiment [3] (FAAH^wt + empty vector (0.36 μg/assay) lysates, 18 h) is 4.28±0.41; in experiment [3] (FAAH^wt lysate 0.04 μg/assay, 18 h), 3.00±0.31; at FAAH^T488A, 2.43±0.37. The “maximum inhibition (best fit)” value in experiment [3] (wild-type FAAH lysates, 18 h) is recorded as 82–91%.
`Cc1cccnc1NC(=O)[C@H](C)c1ccc(CC(C)C)cc1` [(R)-Ibu-AM5, 2-(4-Isobutylphenyl)-N-(3-methylpyridin-2-yl)propanamide]: the “nH (Hill slope)” value at mouse brain FAAH [1] amounted to 1.50±0.36; at rat brain FAAH (setting [7]), 1.05±0.10. The IC50 is 53 µM at mouse brain FAAH [1] (read-out: IC50), 5.7 µM on rat brain FAAH (setting [8]), 5.62 µM at rat brain FAAH (setting [9]) and 8.8 µM in experiment [3]. The same compound gave a α on rat brain FAAH (setting [4]) of 3.1±1.1. Also, the figures for the Ki on rat brain FAAH (setting [5]) and on rat brain FAAH (setting [6]) were 10 ± 2.5 µM and 9.8 µM, respectively. Moreover, on rat brain FAAH (rat FAAH), the “fold less potent an inhibitor of FAAH than the (S)-enantiomer” value came out at 10 fold. Besides, on rat brain FAAH (rat brain homogenates, 0.5 μM [3H]AEA, read-out: maximum inhibition (best fit)), the inhibition is 92%.
Take `Cc1cccnc1NC(=O)Cc1ccc(CC(C)C)cc1` [Ibufenac-AM1, 2-(4-Isobutylphenyl)-N-(3-methylpyridin-2-yl)acetamide]: the IC50 at rat brain FAAH (setting [8]) was 68 µM; at rat brain FAAH (setting [9]), 67.6 µM.
`Cc1cccnc1NC(=O)[C@@H](C)c1ccc(CC(C)C)cc1` [(S)-Ibu-AM5, 2-(4-Isobutylphenyl)-N-(3-methylpyridin-2-yl)propanamide]: the “nH (Hill slope)” value on mouse brain FAAH [1] stood at 1.33±0.38; at rat brain FAAH (setting [7]), 0.81±0.08. For the same compound, the IC50 at mouse brain FAAH [1] (read-out: IC50) was 7 µM; on mouse brain FAAH [1] (read-out: pI50 (converted)), 6.92 µM; on rat brain FAAH (setting [8]) it was 0.59 µM; at rat brain FAAH (setting [9]), 0.589 µM; in experiment [3], 0.53 µM. Also, the “interaction with carprofen in multiple inhibition experiments” value on rat brain FAAH (Dixon plots, 0.5 μM [3H]AEA, together with carprofen) is recorded as “mutually exclusive manner”. The compound further came in with a α on rat brain FAAH (setting [4]) of 3.2±1.5. Moreover, the inhibitory constant (Ki) at rat brain FAAH (setting [5]) amounted to 0.8 ± 0.21 µM; on rat brain FAAH (setting [6]), 0.89 µM.

A word on the Ki: it is the equilibrium dissociation constant of an inhibitor or competing ligand from its target. The inhibition is the drop in the measured response relative to a control, in per cent.
